Results taken from patent publication US12655116B2, “Substituted isophthalic acid diamides” (Bayer Aktiengesellschaft, priority 2020, dated 2026).

Test system: harmful plants
Test: Comparative experiments: herbicidal pre-emergence action versus compounds known from D1 (WO 2012/028579 A1)
Format: in vivo
Design: key to Herbicidal action against ALOMY / Herbicidal action against AVEFA / Herbicidal action against SETVI / Herbicidal action against AMARE / Herbicidal action against STEME / Herbicidal action against VIOTR / Herbicidal action against HORMU / Herbicidal action against MATIN / Herbicidal action against ABUTH: % herbicidal activity: 0 = like control, 100 = plants died
Excerpt: Seeds of monocotyledonous and dicotyledonous weed plants and crop plants are laid out in sandy loam soil in wood-fiber pots and covered with soil. The compounds of the invention, formulated in the form of wettable powders (WP) or as emulsion concentrates (EC), are then applied to the surface of the covering soil in the form of an aqueous suspension or emulsion at a water application rate equivalent to 600 to 800 l/ha, with addition of 0.2% wetting agent. After the treatment, the pots are placed in a greenhouse and kept under good growth conditions for the trial plants. The damage to the test plants is scored visually after a test period of 3 weeks by comparison with untreated controls (herbicidal activity in percent (%): 100% activity=the plants have died, 0% activity=like control plants). […] The tables below illustrate, in an illustrative manner, the post-emergence herbicidal action of the compounds of the invention, the herbicidal activity being stated in percent. In the experiments that follow, herbicidal action of numerous inventive compounds and the structurally closest compounds known from D1 (WO 2012/028579 A1) were compared under the above-specified conditions by the pre-emergence and post-emergence method. The example numbers given in the tables relate to the compounds disclosed in the respective documents.

Row | Compound | Herbicidal action against ABUTH (20 g a.i./ha) | Herbicidal action against AMARE (20 g a.i./ha) | Herbicidal action against AVEFA (20 g a.i./ha) | Herbicidal action against MATIN (20 g a.i./ha) | Herbicidal action against STEME (20 g a.i./ha) | Herbicidal action against VIOTR (20 g a.i./ha) | Herbicidal action against ABUTH (80 g a.i./ha) | Herbicidal action against ALOMY (80 g a.i./ha) | Herbicidal action against AVEFA (80 g a.i./ha) | Herbicidal action against MATIN (80 g a.i./ha) | Herbicidal action against STEME (80 g a.i./ha) | Herbicidal action against VIOTR (80 g a.i./ha) | Herbicidal action against AMARE (80 g a.i./ha) | Herbicidal action against SETVI (80 g a.i./ha) | Herbicidal action against POLCO (20 g a.i./ha, POLCO) | Herbicidal action against SETVI (20 g a.i./ha) | Herbicidal action against HORMU (80 g a.i./ha, HORMU)
1 | CNC(=O)c1c(C(F)(F)F)ccc(C(=O)Nc2nnnn2C)c1Cl [Example 1-129] | 100 | 100 | 100 | 100 | 100 | 100 | 100 | 100 | 100 | 100 | 100 | 100 | – | – | – | – | –
2 | CNC(=O)c1c(C(F)F)ccc(C(=O)Nc2nnnn2C)c1Cl [Example 1-147] | – | – | – | – | – | – | – | 90 | 100 | – | 100 | 100 | 100 | 100 | – | – | –
3 | CCn1nnnc1NC(=O)c1ccc(C(F)(F)F)c(C(=O)NC)c1Cl [Example 2-129] | 100 | – | 100 | 100 | – | 100 | – | – | – | – | – | – | – | – | 100 | 100 | –
4 | CCn1nnnc1NC(=O)c1ccc(C(F)F)c(C(=O)NC)c1Cl [Example 2-147] | – | – | – | – | – | – | – | 90 | 100 | – | 70 | – | – | 100 | – | – | 90
